Measurements: patent publication US10221138B2, “Biaryl derivatives as GPR120 agonists” (LG CHEM, LTD., priority 2013, dated 2019)

Target: T1, hGPR120 (Homo sapiens, UniProt Q5NUL3)
T1 construct: expressed in transfected cells; host or cells: CHO-K1
T1 sequence (Q5NUL3 1-361): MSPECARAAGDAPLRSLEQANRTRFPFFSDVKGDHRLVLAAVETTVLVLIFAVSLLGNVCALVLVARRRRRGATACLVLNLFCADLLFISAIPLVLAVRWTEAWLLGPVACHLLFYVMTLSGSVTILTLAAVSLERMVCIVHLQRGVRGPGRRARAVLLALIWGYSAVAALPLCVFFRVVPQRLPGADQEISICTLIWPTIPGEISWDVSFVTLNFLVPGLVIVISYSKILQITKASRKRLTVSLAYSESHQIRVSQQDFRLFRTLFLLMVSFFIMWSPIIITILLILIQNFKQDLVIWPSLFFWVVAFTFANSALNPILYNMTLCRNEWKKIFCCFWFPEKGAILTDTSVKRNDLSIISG
Test: Measurement of activity of GPR120 agonist (cell-based calcium fluorescence assay)
Details: CHO-K1 cells expressing Ga16 and hGPR120, Calcium 5 dye fluorescence; activity class; read-out: EC50
In short: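 CHO-K1 cells co-expressing Gα16 and hGPR120, plated 18 h, loaded with Calcium 5 dye for 1 h at 37 °C, then given serially diluted agonists (final 0.5% DMSO). Fluorescence increase expressed as relative % of the 1% DMSO-only signal.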

| EC50 | SMILES |
| --- | --- |
| 200 to 2000 nM | O=C(O)CCCOc1c(F)cc(-c2cccc(NCC3CC3)n2)cc1F [Example 75, 4-[4-[6-(cyclopropylmethylamino)-2-pyridyl]-2,6-difluoro-phenoxy]butanoic acid] |
| < 200 nM | O=C(O)CCCOc1c(F)cc(-c2cccc(N3CCCC3)n2)cc1F [Example 12, 4-[2,6-difluoro-4-(6-pyrrolidin-1-yl-2-pyridyl)phenoxy]butyric acid] |
| > 20000 nM | O=C(O)CCCOc1c(F)cc(-c2cccnc2NC2CC2)cc1F [Example 77, 4-[4-[2-(cyclopropylamino)-3-pyridyl]-2,6-difluoro-phenoxy]butanoic acid] |
| 200 to 2000 nM | CCCSc1ncccc1-c1cc(F)c(SCCCCCC(=O)O)c(F)c1 [Example 279, 6-[2,6-difluoro-4-(2-propylsulfanyl-pyridin-3-yl)-phenylsulfanyl]-hexanoic acid] |
| < 200 nM | CC(C)Sc1cccc(-c2cc(F)c(OCCCC(=O)O)c(F)c2)n1 [Example 2, 4-[2,6-difluoro-4-(6-isopropylsulfanyl-2-pyridyl)phenoxy]butyric acid] |
| < 200 nM | CC(C)Sc1cccc(-c2cc(F)c(SCCCC(=O)O)c(F)c2)n1 [Example 140, 4-[2,6-difluoro-4-(6-isopropylsulfanyl-pyridin-2-yl)-phenylsulfanyl]-butyric acid] |
| < 200 nM | CC(C)Oc1ccc(F)cc1-c1ccc(SCCCC(=O)O)c(F)c1 [Example 188, 4-(3,5′-difluoro-2′-isopropoxy-biphenyl-4-ylsulfanyl)-butyric acid] |
| < 200 nM | CC(C)Oc1ncccc1-c1cc(F)c(SC(C)CCC(=O)O)c(F)c1 (stereo not shown) [Example 242, 4-[2,6-difluoro-4-(2-isopropoxy-pyridin-3-yl)-phenylsulfanyl]-pentanoic acid] |
| < 200 nM | O=C(O)CCCOc1c(F)cc(-c2cccc(OCC3CC3)n2)cc1F [Example 24, 4-[4-[6-(cyclopropylmethoxy)-2-pyridyl]-2,6-difluoro-phenoxy]butyric acid] |
| < 200 nM | CC(C)Sc1cccc(-c2cc(F)c(OCCCCC(=O)O)c(F)c2)n1 [Example 237, 5-[2,6-difluoro-4-(6-isopropylsulfanyl-2-pyridyl)phenoxy]pentanoic acid] |
| 200 to 2000 nM | O=C(O)CCCCCSc1c(F)cc(-c2cccnc2SC2CCCC2)cc1F [Example 277, 6-[4-(2-cyclopentylsulfanyl-pyridin-3-yl)-2,6-difluoro-phenylsulfanyl]-hexanoic acid] |
| < 200 nM | O=C(O)CCCOc1c(F)cc(-c2cccc(NCC3CC3)c2)cc1F [Example 90, 4-[4-[3-(cyclopropylmethylamino)phenyl]-2,6-difluoro-phenoxy]butanoic acid] |
| 200 to 2000 nM | O=C(O)CCCCOc1c(F)cc(-c2cccnc2OC2CCOC2)cc1F (stereo not shown) [Example 240, 5-[2,6-difluoro-4-(2-tetrahydrofuran-3-yloxy-3-pyridyl)phenoxy]pentanoic acid] |
| 200 to 2000 nM | O=C(O)CCCOc1c(F)cc(-c2cccc(CC3CCCC3)c2)cc1F [Example 98, 4-[4-[3-(cyclopentylmethyl)phenyl]-2,6-difluoro-phenoxy]butanoic acid] |
| 200 to 2000 nM | O=C(O)CCCOc1c(F)cc(-c2cccnc2-n2cccc2)cc1F [Example 109, 4-[2,6-difluoro-4-(2-pyrrol-1-yl-3-pyridyl)phenoxy]butanoic acid] |
| < 200 nM | O=C(O)CCCCOc1ccc(-c2cccnc2SC2CCC2)cc1F [Example 266, 5-[4-(2-cyclobutylsulfanyl-pyridin-3-yl)-2-fluoro-phenoxy]-pentanoic acid] |
| < 200 nM | O=C(O)CCCOc1c(F)cc(-c2ccccc2OCC2CC2)cc1F [Example 54, 4-(2′-cyclopropylmethoxy-3,5-difluoro-biphenyl-4-yloxy)-butyric acid] |
| > 20000 nM | CC1(COc2ncccc2-c2cc(F)c(OCCCC(=O)O)c(F)c2)COC1 [Example 221, 4-[2,6-difluoro-4-[2-[(3-methyloxetan-3-yl)methoxy]-3-pyridyl]phenoxy]butanoic acid] |
| < 200 nM | C[C@H](CCC(=O)O)Oc1c(F)cc(-c2cccc(Oc3ccccc3)c2)cc1F [Example 118, (4R)-4-[2,6-difluoro-4-(3-phenoxyphenyl)phenoxy]pentanoic acid] |
| 200 to 2000 nM | CC(C)Oc1ncccc1-c1ccc(SCCCC(=O)O)cc1 [Example 131, 4-[4-(2-isopropoxy-pyridin-3-yl)-phenylsulfanyl]-butyric acid] |
| 200 to 2000 nM | O=C(O)CCCOc1c(F)cc(-c2cccnc2N2CCCC2)cc1F [Example 72, 4-[2,6-difluoro-4-(2-pyrrolidin-1-yl-3-pyridyl)phenoxy]butanoic Acid] |
| 2000 to 20000 nM | O=C(O)CCCOc1c(F)cc(-c2cccnc2OCC2CCOC2)cc1F (stereo not shown) [Example 222, 4-[2,6-difluoro-4-[2-(tetrahydrofuran-3-ylmethoxy)-3-pyridyl]phenoxy]butanoic acid] |
| < 200 nM | CCCSc1ncccc1-c1cc(F)c(OCCCC(=O)O)c(F)c1 [Example 204, 4-[2,6-difluoro-4-(2-propylsulfanyl-pyridin-3-yl)-phenoxy]-butanoic acid] |
| < 200 nM | CCCSc1ncccc1-c1cc(F)c(SCCCCC(=O)O)c(F)c1 [Example 257, 5-[2,6-difluoro-4-(2-propylsulfanyl-pyridin-3-yl)-phenylsulfanyl]-pentanoic acid] |
| < 200 nM | CC(C)Sc1ncccc1-c1ccc(SCCCC(=O)O)c(F)c1 [Example 163, 4-[2-fluoro-4-(2-isopropylsulfanyl-pyridin-3-yl)-phenylsulfanyl]butyric acid] |
| 200 to 2000 nM | CC(C)Nc1ncccc1-c1ccc(SCCCC(=O)O)c(F)c1 [Example 174, 4-[2-fluoro-4-(2-isopropylamino-pyridin-3-yl)-phenylsulfanyl]-bytyric acid] |
| 200 to 2000 nM | COc1ncccc1-c1cc(F)c(OCCCC(=O)O)c(F)c1 [Example 268, 4-[2,6-difluoro-4-(2-methoxy-pyridin-3-yl)-phenoxy]-butyric acid] |
| < 200 nM | O=C(O)CCCOc1c(F)cc(-c2ccccc2CC2CCCC2)cc1F [Example 99, 4-[4-[2-(cyclopentylmethyl)phenyl]-2,6-difluoro-phenoxy]butanoic acid] |
| < 200 nM | O=C(O)CCCCOc1ccc(-c2cccnc2OC2CCCC2)cc1F [Example 267, 5-[4-(2-cyclopentyloxy-pyridin-3-yl)-2-fluoro-phenoxy]-pentanoic acid] |
| < 200 nM | CCCCSc1ncccc1-c1cc(F)c(OCCCC(=O)O)c(F)c1 [Example 207, 4-[4-(2-butylsulfanyl-pyridin-3-yl)-2,6-difluoro-phenoxy]-butanoic acid] |

| SMILES | EC50 |
| --- | --- |
| O=C(O)CCCCOc1c(F)cc(-c2cccnc2OC2CCC2)cc1F [Example 214, 5-[4-(2-cyclobutoxy-pyridin-3-yl)-2,6-difluoro-phenoxy]-pentanoic acid] | < 200 nM |
| O=C(O)CCCSc1c(F)cc(-c2cccnc2OC2CCC2)cc1F [Example 144, 4-[4-(2-cyclobutoxy-pyridin-3-yl)-2,6-difluoro-phenylsulfanyl]-butyric acid] | < 200 nM |
| O=C(O)CCCSc1ccc(-c2cccnc2OC2CCC2)cc1F [Example 172, 4-[4-(2-cyclobutoxy-pyridin-3-yl)-2-fluoro-phenylsulfanyl]-butyric acid] | < 200 nM |
| O=C(O)CCCOc1ccc(-c2cccc(OC3CCCC3)c2)nc1 [Example 36, 4-[[6-[3-(cyclopentoxy)phenyl]-3-pyridyl]oxy]butyric acid] | 200 to 2000 nM |
